Read-outs that look alike come from different tables or passages of the source.
Legend:
[1] = test system: HCV replicon genotype 1a; test: HCV replicon assay, genotype 1a (cell ELISA for NS3/4A); format: cell-based, hepatitis C virus
Summary of the method: (§1)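 Stable neomycin-resistant replicon cell lines (genotype 1a or 1b) incubated 96 h with compound dilution series without G418. After washing and lysis, replication measured by cell ELISA for replicon-encoded NS3/4A protein; IC50 as % of DMSO control via four-parameter fit.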

[2] = test system: HCV replicon genotype 1b; test: HCV replicon assay, genotype 1b (cell ELISA for NS3/4A); format: cell-based, hepatitis C virus
Summary of the method: as §1

[3] = Hepatitis C virus, 96 h, read-out: 1a IC50 (nM), HCV genotype 1a replicon cells, 96 hours incubation, NS3/4A ELISA readout, % of DMSO control
[4] = Hepatitis C virus, 96 h, read-out: 1b IC50 (nM), HCV genotype 1b replicon cells, 96 hours incubation, NS3/4A ELISA readout, % of DMSO control
[5] = read-out: 1a IC50, HCV genotype 1a replicon cells, 96 hours incubation, NS3/4A ELISA readout, % of DMSO control
[6] = read-out: 1b IC50, HCV genotype 1b replicon cells, 96 hours incubation, NS3/4A ELISA readout, % of DMSO control

CNC(=O)c1c(-c2ccc(F)cc2)oc2cc(N(C)S(C)(=O)=O)c([C@H]3CCCN(S(=O)(=O)C4CCCC4)C3)cc12 [Example 135, 5-[(3R)-1-(cyclopentylsulfonyl)piperidin-3-yl]-2-(4-fluorophenyl)-N-methyl-6-[methyl(methylsulfonyl)amino]-1-benzofuran-3-carboxamide] showed an IC50 [1, 3] of 80.4 nM and an IC50 [2, 4] of 45.6 nM.

CNC(=O)c1c(-c2ccc(F)cc2)oc2cc(N(C)S(C)(=O)=O)c([C@@H]3CCCN(S(=O)(=O)c4cccc(F)c4)C3)cc12 [Example 114, 2-(4-fluorophenyl)-5-{(3S)-1-[(3-fluorophenyl)sulfonyl]piperidin-3-yl}-N-methyl-6-[methyl(methylsulfonyl)amino]-1-benzofuran-3-carboxamide] was tested, and the IC50 [1, 3] was 34.2 nM and the IC50 [2, 4] was 8.2 nM.

For CNC(=O)c1c(-c2ccc(F)cc2)oc2cc(N(C)S(C)(=O)=O)c([C@H]3CCCN(S(=O)(=O)Cc4cccc(F)c4)C3)cc12 [Example 82, 5-{(3R)-1-[(3-fluorobenzyl)sulfonyl]piperidin-3-yl}-2-(4-fluorophenyl)-N-methyl-6-[methyl(methylsulfonyl)amino]-1-benzofuran-3-carboxamide], the IC50 [1, 3] was 2.2 nM and the IC50 [2, 4] was 3.26 nM.

With CCn1c(C(=O)N2CCC[C@H](c3cc4c(C(=O)NC)c(-c5ccc(F)cc5)oc4cc3N(C)S(C)(=O)=O)C2)cc2c(F)cccc21 [Example 34, (R)-5-(1-(1-ethyl-4-fluoro-1H-indole-2-carbonyl)piperidin-3-yl)-2-(4-fluorophenyl)-N-methyl-6-(N-methylmethylsulfonamido)benzofuran-3-carboxamide] the IC50 [1, 3] was 84.1 nM and the IC50 [2, 4] was 65.3 nM.

Work on CNC(=O)c1c(-c2ccc(F)cc2)oc2cc(N(C)S(C)(=O)=O)c([C@@H]3CCCN(C(=O)c4cc5cccc(F)c5[nH]4)C3)cc12 [Example 32, (S)-5-(1-(7-fluoro-1H-indole-2-carbonyl)piperidin-3-yl)-2-(4-fluorophenyl)-N-methyl-6-(N-methylmethylsulfonamido)benzofuran-3-carboxamide] yielded an IC50 [1, 3] of 53.1 nM and an IC50 [2, 4] of 19.2 nM.

Work on CNC(=O)c1c(-c2ccc(F)cc2)oc2cc(N(C)S(C)(=O)=O)c([C@@H]3CCCN(C(=O)c4nc5ccc(F)cc5s4)C3)cc12 [Example 75, 5-{1-[(6-fluoro-1,3-benzothiazol-2-yl)carbonyl]piperidin-3-yl}-2-(4-fluorophenyl)-N-methyl-6-[methyl(methylsulfonyl)amino]-1-benzofuran-3-carboxamide] yielded an IC50 [1, 3] of 72.3 nM and an IC50 [2, 4] of 12 nM.

Work on CNC(=O)c1c(-c2ccc(F)cc2)oc2cc(N(C)S(C)(=O)=O)c([C@@H]3CCCN(C(=O)c4cc5ncccc5[nH]4)C3)cc12 [Example 65, 2-(4-fluorophenyl)-N-methyl-6-[methyl(methylsulfonyl)amino]-5-[1-(1H-pyrrolo[3,2-b]pyridin-2-ylcarbonyl)piperidin-3-yl]-1-benzofuran-3-carboxamide] yielded an IC50 [1, 3] of 140 nM and an IC50 [2, 4] of 46.3 nM.

CNC(=O)c1c(-c2ccc(F)cc2)oc2cc(N(C)S(C)(=O)=O)c([C@@H]3CCCN(C(=O)c4oc5ccc(F)cc5c4C)C3)cc12 [Example 62, 5-{1-[(5-fluoro-3-methyl-1-benzofuran-2-yl)carbonyl]piperidin-3-yl}-2-(4-fluorophenyl)-N-methyl-6-[methyl(methylsulfonyl)amino]-1-benzofuran-3-carboxamide] gave an IC50 [1, 3] of 192 nM and an IC50 [2, 4] of 41.2 nM.

CNC(=O)c1c(-c2ccc(F)cc2)oc2cc(N(C)S(C)(=O)=O)c([C@@H]3CCCN(c4nc5c(F)cccc5o4)C3)cc12 (single isomer, unassigned) [Example 50, 5-(1-(4-fluorobenzo[d]oxazol-2-yl)piperidin-3-yl)-2-(4-fluorophenyl)-N-methyl-6-(N-methylmethylsulfonamido)benzofuran-3-carboxamide] gave an IC50 [1, 5] of 81.7 nM and an IC50 [2, 6] of 20.1 nM.

CNC(=O)c1c(-c2ccc(F)cc2)oc2cc(N(C)S(C)(=O)=O)c([C@@H]3CCCN(c4nc5ccccc5[nH]4)C3)cc12 (single isomer, unassigned) [Example 46, 5-(1-(1H-benzo[d]imidazol-2-yl)piperidin-3-yl)-2-(4-fluorophenyl)-N-methyl-6-(N-methylmethylsulfonamido)benzofuran-3-carboxamide] gave an IC50 [1, 5] of 11.9 nM and an IC50 [2, 6] of 9.47 nM.

Molecule CNC(=O)c1c(-c2ccc(F)cc2)oc2cc(N(C)S(C)(=O)=O)c([C@H]3CN(c4nc5ccccc5o4)CCO3)cc12 (single isomer, unassigned) [Example 11, 5-(4-(benzo[d]oxazol-2-yl)morpholin-2-yl)-2-(4-fluorophenyl)-N-methyl-6-(N-methylmethylsulfonamido)benzofuran-3-carboxamide] has an IC50 [1, 5] of 21.4 nM and an IC50 [2, 6] of 17.2 nM.

CNC(=O)c1c(-c2ccc(F)cc2)oc2cc(N(C)S(C)(=O)=O)c([C@@H]3CCCN(C(=O)c4cc5cccc(OC)c5[nH]4)C3)cc12 (single isomer, unassigned) [Example 42, 2-(4-fluorophenyl)-5-(1-(7-methoxy-1H-indole-2-carbonyl)piperidin-3-yl)-N-methyl-6-(N-methylmethylsulfonamido)benzofuran-3-carboxamide] gave an IC50 [1, 5] of 106 nM and an IC50 [2, 6] of 23.9 nM.

CNC(=O)c1c(-c2ccc(F)cc2)oc2cc(N(C)S(C)(=O)=O)c([C@H]3CCCN(S(=O)(=O)c4c(Cl)nc5sccn45)C3)cc12 [Example 133, 5-{(3R)-1-[(6-chloroimidazo[2,1-b][1,3]thiazol-5-yl)sulfonyl]piperidin-3-yl}-2-(4-fluorophenyl)-N-methyl-6-[methyl(methylsulfonyl)amino]-1-benzofuran-3-carboxamide] showed an IC50 [1, 3] of 106 nM and an IC50 [2, 4] of 74.7 nM.

For CNC(=O)c1c(-c2ccc(F)cc2)oc2cc(N(C)S(C)(=O)=O)c([C@@H]3CCCN(c4nc5ccccc5n4C)C3)cc12 (single isomer, unassigned) [Example 43, 2-(4-fluorophenyl)-N-methyl-5-(1-(1-methyl-1H-benzo[d]imidazol-2-yl)piperidin-3-yl)-6-(N-methylmethylsulfonamido)benzofuran-3-carboxamide], the IC50 [1, 3] was 41.2 nM and the IC50 [2, 4] was 93 nM.

Work on CNC(=O)c1c(-c2ccc(F)cc2)oc2cc(N(C)S(C)(=O)=O)c([C@@H]3CCCN(C(=O)c4nc5ccccc5o4)C3)cc12 [Example 77, 5-[1-(1,3-benzoxazol-2-ylcarbonyl)piperidin-3-yl]-2-(4-fluorophenyl)-N-methyl-6-[methyl(methylsulfonyl)amino]-1-benzofuran-3-carboxamide] yielded an IC50 [1, 3] of 64.3 nM and an IC50 [2, 4] of 19.2 nM.

CNC(=O)c1c(-c2ccc(F)cc2)oc2cc(N(C)S(C)(=O)=O)c(C3C[C@@H](c4nc5c(F)cccc5o4)N(C)C3)cc12 (stereo partly drawn) [Example 12, 5-((5S)-5-(4-fluorobenzo[d]oxazol-2-yl)-1-methylpyrrolidin-3-yl)-2-(4-fluorophenyl)-N-methyl-6-(N-methylmethylsulfonamido)benzofuran-3-carboxamide] gave an IC50 [1, 3] of 92.8 nM and an IC50 [2, 4] of 37.8 nM.

Molecule CNC(=O)c1c(-c2ccc(F)cc2)oc2cc(N(C)S(C)(=O)=O)c([C@H]3CCCN(C(=O)C(c4ccccc4)N4CCOCC4)C3)cc12 (stereo partly drawn) [Example 98, 2-(4-fluorophenyl)-N-methyl-6-[methyl(methylsulfonyl)amino]-5-{(3R)-1-[morpholin-4-yl(phenyl)acetyl]piperidin-3-yl}-1-benzofuran-3-carboxamide] has an IC50 [1, 3] of 241 nM and an IC50 [2, 4] of 112 nM.

CNC(=O)c1c(-c2ccc(F)cc2)oc2cc(N(C)S(C)(=O)=O)c([C@H]3CCCN(C(=O)c4nn(CC5CC5)c5ccccc45)C3)cc12 [Example 100, 5-[(3R)-1-{[1-(cyclopropylmethyl)-1H-indazol-3-yl]carbonyl}piperidin-3-yl]-2-(4-fluorophenyl)-N-methyl-6-[methyl(methylsulfonyl)amino]-1-benzofuran-3-carboxamide] showed an IC50 [1, 3] of 65 nM and an IC50 [2, 4] of 20.4 nM.

For CNC(=O)c1c(-c2ccc(F)cc2)oc2cc(N(C)S(C)(=O)=O)c([C@H]3CCCN(C(=O)c4ccn5nncc5c4)C3)cc12 [Example 105, 2-(4-fluorophenyl)-N-methyl-6-[methyl(methylsulfonyl)amino]-5-[(3R)-1-([1,2,3]triazolo[1,5-a]pyridin-5-ylcarbonyl)piperidin-3-yl]-1-benzofuran-3-carboxamide], the IC50 [1, 3] was 347 nM and the IC50 [2, 4] was 219 nM.

CNC(=O)c1c(-c2ccc(F)cc2)oc2cc(N(C)S(C)(=O)=O)c([C@@H]3CCCN(S(=O)(=O)c4ccc(C)cc4)C3)cc12 [Example 113, 2-(4-fluorophenyl)-N-methyl-6-[methyl(methylsulfonyl)amino]-5-{(3S)-1-[(4-methylphenyl)sulfonyl]piperidin-3-yl}-1-benzofuran-3-carboxamide] gave an IC50 [1, 3] of 64.6 nM and an IC50 [2, 4] of 21.9 nM.

With CNC(=O)c1c(-c2ccc(F)cc2)oc2cc(N(C)S(C)(=O)=O)c(C3CCCN(C(=O)[C@H](NC(=O)OC(C)(C)C)c4ccccc4F)C3)cc12 (single isomer, unassigned) [Example 27] the IC50 [1, 3] was 44.4 nM and the IC50 [2, 4] was 35.2 nM.

In the case of CNC(=O)c1c(-c2ccc(F)cc2)oc2cc(N(C)S(C)(=O)=O)c(C3CNCC(c4cc5c(F)cccc5[nH]4)N3)cc12 (stereo not shown) [Example 13, 5-(6-(4-fluoro-1H-indol-2-yl)piperazin-2-yl)-2-(4-fluorophenyl)-N-methyl-6-(N-methylmethylsulfonamido)benzofuran-3-carboxamide], the IC50 [1, 3] is reported as 140 nM and the IC50 [2, 4] is reported as 165 nM.

CNC(=O)c1c(-c2ccc(F)cc2)oc2cc(N(C)S(C)(=O)=O)c([C@@H]3CCCN(S(=O)(=O)C4CCCCC4)C3)cc12 [Example 116, 5-[(3S)-1-(cyclohexylsulfonyl)piperidin-3-yl]-2-(4-fluorophenyl)-N-methyl-6-[methyl(methylsulfonyl)amino]-1-benzofuran-3-carboxamide] was tested, and the IC50 [1, 3] was 194 nM and the IC50 [2, 4] was 31.7 nM.

— US9549921B2, “Heterocyclic compounds and methods of use thereof for the treatment of hepatitis C” (priority 2014, dated 2017)
